In brackets after ≈: the same amount, converted by molar mass.
Experiments:
[1] = tested on: cleavage division of Hemicentrotus pulcherrimus; assay: Inhibition test for cell division (cleavage division); format: in vivo; conditions: observed 4 hours after fertilization; * = no activity at the indicated concentration
Description: (§1) Physiological activity of each dehydrodiketopiperazine will be described below. Each dehydrodiketopiperazine was tested for its inhibitory activity against cleavage division of Hemicentrotus pulcherrimus, Scaphechinus mirabilis and Temnopleurus toreumaticus as a cell division inhibitory activity. The test was carried out as described in The Journal of Antibiotics, Vol. 52, p. 1017 (1999). However, stages at which the first cleavage division occurs vary among sea urchins, so that inhibition of the cleavage division was observed after 4 hours of fertilization in the tests using Hemicentrotus pulcherrimus and Scaphechinus mirabilis, and after one hour of fertilization in the test using Temnopleurus toreumaticus, respectively.

[2] = tested on: cleavage division of Scaphechinus mirabilis; assay: as above; format: in vivo; conditions: observed 4 hours after fertilization; * = no activity at the indicated concentration
Description: as §1

[3] = tested on: cleavage division of Temnopleurus toreumaticus; assay: as above; format: in vivo; conditions: observed one hour after fertilization; * = no activity at the indicated concentration
Description: as §1

tubulin = conditions: cited from earlier work
tumor = conditions: cited from earlier work
[4] = tested on: cancer cell transplanted model animal; conditions: cited from earlier work
[5] = tested on: cleavage division of Hemicentrotus pulcherrimus, Scaphechinus mirabilis and Temnopleurus toreumaticus; assay: Comparison of cell division inhibitory activity across the sea urchin tests; format: in vivo, sea urchins; conditions: ratio of MIC values
Description: as §1

[6] = tested on: dehydrogenase (cell-free extract); assay: Amount of dehydrogenation of each substrate by enzyme (change in absorbance at 600 nm due to coenzyme); format: biochemical, Streptomyces albulus KO23; conditions: relative value of change in absorbance at 600 nm, CFL set to 100; substrate 0.5 mM, 37° C.
pronuclear fusion = conditions: Kobayashi et al. 1989; cited from earlier work
bacteria = conditions: Fukushima et al. 1973; cited from earlier work
[7] = tested on: sea urchin embryo division; conditions: Kanzaki et al. 1999; cited from earlier work

| Structure (SMILES) | MIC Hemicentrotus pulcherrimus [1] | MIC Scaphechinus mirabilis [2] | MIC Temnopleurus toreumaticus [3] | Amount of dehydrogenation [6] | other results |
| --- | --- | --- | --- | --- | --- |
| C=CC(C)(C)c1[nH]cnc1C=C1NC(=O)C(Cc2ccccc2)NC1=O (single isomer, unassigned; (+)) [(+)-phenylahistin, 3-{[5-(1,1-dimethyl-2-propenyl)imidazole-4-yl]methylene}-6-benzylpiperazine-2,5-dione] | 13 µg/mL (≈ 37.1 µM) | >13* μg/ml | 6.3 µg/mL (≈ 18 µM) |  |  |
| C=CC(C)(C)c1[nH]cnc1C=C1NC(=O)C(Cc2ccccc2)NC1=O (single isomer, unassigned; (-)) [(−)-phenylahistin, 3-{[5-(1,1-dimethyl-2-propenyl)imidazole-4-yl]methylene}-6-benzylpiperazine-2,5-dione] | 0.39 µg/mL (≈ 1.11 µM) | 1.6 µg/mL (≈ 4.57 µM) | 0.2 µg/mL (≈ 0.571 µM) |  | inhibition of the polymerization of tubulin (tubulin): inhibits the polymerization of tubulin; antitumor activity relative to (+)-phenylahistin (tumor; times stronger than (+)-phenylahistin, approx.): 30-100 times; antitumor effect [4]: a certain degree of antitumor activity |
| O=c1[nH]/c(=C\c2c[nH]cn2)c(=O)[nH]/c1=C\c1ccccc1 [(Z,Z)-tetradehydro-CFH, Z-tetradehydrocyclophenylalanylhistidyl] | 0.78 µg/mL (≈ 2.78 µM) | 1.6 µg/mL (≈ 5.71 µM) | 1.6 µg/mL (≈ 5.71 µM) |  | inhibitory activity compared with CFH [5]: ≥ 15 fold |
| O=C(O)CC1NC(=O)C(CC(=O)O)NC1=O (centres unmarked) [CDD] |  |  |  | 14 |  |
| O=C(O)CCC1NC(=O)C(CCC(=O)O)NC1=O (centres unmarked) [CEE] |  |  |  | 14 |  |
| O=C1N[C@@H](Cc2c[nH]cn2)C(=O)N[C@H]1Cc1ccccc1 [CFH, cyclophenylalanylhistidyl] | >25* μg/ml | >25* μg/ml | >25* μg/ml | 44 |  |
| CC(C)C[C@@H]1NC(=O)[C@H](Cc2ccccc2)NC1=O [CFL] |  |  |  | 100 |  |
| CC(C)CC1NC(=O)C(Cc2ccc(O)cc2)NC1=O (centres unmarked) [CLY] |  |  |  | 14 |  |
| CSCCC1NC(=O)C(CCSC)NC1=O (centres unmarked) [CMM] |  |  |  | 27 |  |
| CC(C)/C=c1\[nH]c(=O)/c(=C/c2ccccc2)[nH]c1=O [albonoursin, 3-(Z)-benzylidene-6-(Z)isobutylidene-2,5-piperazine dione] | 6.3 µg/mL (≈ 24.6 µM) | >13* μg/ml | >25* μg/ml |  | inhibition of pronuclear fusion (pronuclear fusion): acts to inhibit the pronuclear fusion; antitumor activity (tumor; Fukushima et al. 1973): has an antitumor activity; antibacterial activity (bacteria): antibacterial activity |
| C=CC(C)(C)c1[nH]cnc1/C=c1\[nH]c(=O)/c(=C/c2ccccc2)[nH]c1=O [dehydrophenylahistin, (Z, Z)-dehydrophenylahistin] | 0.00038 µg/mL (≈ 0.00109 µM) | 0.0061 µg/mL (≈ 0.0175 µM) | 0.0061 µg/mL (≈ 0.0175 µM) |  |  |
| O=c1[nH]c(=Cc2ccccc2)c(=O)[nH]c1=Cc1ccccc1 [tetradehydrocyclo (Phe-Phe)] |  |  |  |  | sea urchin embryo division inhibitory activity [7]: exhibits sea urchin embryo division inhibitory activity |
